# Results reported in patent publication US20020110808A1, “Toxicant-induced differential gene expression” (priority 2000, published 2002).
# Tested on: HepG2 cells
# Test: Differential display PCR (DD-PCR) of mRNA from treated cells
# Type: cell-based, human
# Conditions: visual inspection, not confirmed
# Protocol: For each reverse transcription reaction, 50 ng of mRNA was incubated with a 3′ Anchored Primer (1 μM) at 65° C. for 5 minutes. The tubes were chilled and spun briefly. […] The final volume was 20 μl. Tubes were heated to 25° C. for 10 min, 42° C. for 60 min, and 70° C. for 15 min. The cDNA produced was either used immediately or stored at −20° C.
# The DD-PCR was performed under the conditions recommended by Genomyx Corporation: 95° C. for 2 min; 4 cycles of 92° C. for 15 sec, 46° C. for 30 sec, 72° C. for 2 min; 25 cycles of 92° C. for 15 sec, 60° C. for 30 sec, 72° C. for 2 min; and one cycle of 72° C. for 7 min, followed by cooling at 4° C.
# Stop solution (11 μl) was added to each reaction. The tubes were then heated for 2 min at 95° C. A 3-μl aliquot of each reaction was run on a 4.5% denaturing polyacrylamide gel for 16 hours at 800 V, 50° C. Under these conditions, bands ranging from 300 to 1200 base-pairs were well-resolved. Band excision and reamplification were performed according to the instructions given in the Genomyx Corporation protocol. The reamplification reaction mixture was added directly to the excised band and the PCRs were performed under the same conditions as the original DD-PCR, with the exceptions that the M13R(−48) and T7 primers (SEQ ID NO: 3 AND SEQ ID NO: 2, respectively) were used instead of the original anchored and arbitrary primers and [α-^33P]dATP was omitted. The PCR products were purified with S-400 HR microspin columns (Pharmacia).
smiles,measurement,setting,value
CC(=O)Nc1ccc(O)cc1 [acetaminophen],"Number of difference bands on DD-PCR gel, Decreased",acetaminophen 0.02 mM,0
same,"Number of difference bands on DD-PCR gel, Increased",acetaminophen 0.02 mM,0
same,"Number of difference bands on DD-PCR gel, Decreased",acetaminophen 0.2 mM,0
same,"Number of difference bands on DD-PCR gel, Increased",acetaminophen 0.2 mM,0
same,"Number of difference bands on DD-PCR gel, Decreased",acetaminophen 2 mM,1
same,"Number of difference bands on DD-PCR gel, Increased",acetaminophen 2 mM,4
same,"Number of difference bands on DD-PCR gel, Decreased",acetaminophen 20 mM,16
same,"Number of difference bands on DD-PCR gel, Increased",acetaminophen 20 mM,18
